Test results as given in PubChem BioAssay (NCI).
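Exposure lasted 48 hours, with cells grown in 96-well plates and compounds tested at five concentrations. GI50 = concentration required for 50% inhibition of growth. TGI: concentration producing complete growth inhibition.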

Columns and labels:
Assay in all cases: growth of human tumour cells (NCI), 48 h
[1] = system: MDA-MB-435
[2] = system: MDA-MB-231 breast
[3] = system: PC-3 prostate
[4] = system: T-47D breast
[5] = system: BT-549 breast
[6] = system: DMS 114 small cell lung
[7] = system: M19-MEL melanoma
[8] = system: SNB-78 CNS
[9] = system: KM20L2 colon
[10] = system: DMS 273 small cell lung

Row | SMILES | GI50 [1] [µM] | TGI [1] [µM] | GI50 [2] [µM] | TGI [2] [µM] | GI50 [3] [µM] | TGI [3] [µM] | GI50 [4] [µM] | TGI [4] [µM] | GI50 [5] [µM] | TGI [5] [µM] | TGI [6] [µM] | TGI [7] [µM] | TGI [8] [µM] | TGI [9] [µM] | TGI [10] [µM] | GI50 [9] [µM]
1 | O=C(Nc1ccccc1C(=O)N/N=C(\c1ccccc1)c1ccccn1)c1ccc(F)cc1 | 0.602 | > 100 | 0.705 | > 100 | 0.792 | > 100 | 0.394 | > 100 | 0.436 | > 26.7 |  |  |  |  |  | 
2 | COC(=O)/C(=N\NC(N)=S)C(C#N)c1ccccc1 (stereo not drawn) |  |  |  |  |  |  |  |  |  |  | > 100 | > 100 | > 100 | > 100 |  | 
3 | Cc1cc([N+](=O)[O-])c(C)c(Br)c1C |  | > 100 |  | > 100 |  | > 100 |  | > 100 |  | > 100 |  |  |  |  |  | 
4 | Cc1ccc(C(C)C)cc1NC(=O)Nc1ccc([N+](=O)[O-])cc1 | 2.19 | 6.5 | 1.52 | 3.65 | 2.75 | 12.2 | 1.99 | 7.36 | 2.13 | 8.21 |  |  |  |  |  | 
5 | CC1CCC2N(C1)CC1C3(O)CC45OC6(O)C(O)CCC4(C)C6CCC5C3(O)CC(O)C1(O)C2(C)O (stereo not drawn) |  | > 100 |  | > 100 |  | > 100 |  | > 100 |  | > 100 |  |  |  |  |  | 
6 | COc1ccc(S(=O)(=O)N(C)CC(=O)O)cc1 |  |  |  |  |  |  |  |  |  |  |  | > 100 |  | > 100 | > 100 | 
7 | C/C(CC(=O)N(C(C)C)C(C)C)=N\NC(=O)c1ccncc1 |  |  |  |  |  |  |  |  |  |  |  | > 100 | > 100 | > 100 | > 100 | 
8 | CC1=C(C(=O)Nc2ccc(Cl)c(Cl)c2)C(c2ccccc2O)NC(=O)N1 (stereo not drawn) | 27.4 | > 50 | 28 | > 50 | 33.7 | > 50 | > 50 | > 50 | 15.3 | > 50 |  |  |  |  |  | 
9 | Cc1cc(C(O)CN(C)C)cc2c1ccc1cc(C(C)C)ccc12 (stereo not drawn) | 1.79 | 3.64 | 1.64 | 3.55 | 2.24 | 5.77 | 2.04 | 4.48 | 5.67 | 19.5 |  |  |  |  |  | 
10 | N#CC1C=Cc2ccccc2N1C(=O)Oc1ccccc1 (stereo not drawn) |  | 58.7 |  | > 100 |  | > 100 |  | > 100 |  | > 100 |  |  |  |  |  | 
11 | C=[CH][Sn]([CH]=C)([O]c1cccc2cccnc12)[O]c1cccc2cccnc12 | 7.86 | 40.8 | 11.9 | 36.9 | 3.85 | 29.7 |  |  | 2.78 | 31.5 |  |  |  | 4.99 |  | 2.26
12 | COc1cc([N+](=O)[O-])c2ncccc2c1[N+](=O)[O-] | 3.9 | 15.1 | 11.6 | 24.8 | 4.18 | 17 | 3.1 | 11.7 | 7.62 | 20.2 |  |  |  |  |  | 
13 | COc1ccc2nc3ccccc3c(NCCCCN(C)CCCl)c2c1 |  | 0.325 |  |  |  |  |  |  |  | 1.98 |  | 0.602 | 0.674 | 0.478 | 0.283 | 
14 | Nc1ccc2c(c1)c(N)nn2C(=O)Nc1ccc(Cc2ccccc2)cc1 | 7.36 | 23.8 | 7.74 | 22.7 | 4.33 | 24 | 5.8 | 22.8 | 14.6 | 33.5 |  |  |  |  |  | 
15 | N=C1C=C(N)C(=O)c2[nH]c(=O)ccc21 |  | 2.3 |  | 3.46 |  | 2.8 |  | 4.88 |  |  |  |  |  |  |  | 
16 | CC1COCC(C)N1C1=C(Cl)C(=O)c2ccccc2C1=O (stereo not drawn) | 1.35 | 2.73 | 2.46 | 11 | 3.92 | 17.8 |  |  | 11.7 | 24 |  |  |  |  |  | 
17 | CC1CC2(C)CC(=O)C1C1C(=O)N(CCN3CCCCC3)C(=O)C12 (stereo not drawn) | > 100 | > 100 | > 100 | > 100 | > 100 | > 100 | > 100 | > 100 | > 100 | > 100 |  |  |  |  |  | 
18 | CC(C)C(=O)Oc1cc2c(=O)oc3c(OC(=O)C(C)C)c(OC(=O)C(C)C)cc4c(=O)oc(c1OC(=O)C(C)C)c2c34 |  | > 100 |  | > 100 |  | > 100 |  |  |  | > 100 |  |  |  |  |  | 
19 | CC(=O)Oc1ccc2c(c1)CC[C@@H]1C2CC[C@]2(C)C(=O)NC(=O)CC12 (stereo partly drawn) |  | > 100 |  | > 100 |  | > 100 |  | > 100 |  | > 100 |  |  |  |  |  | 
20 | C/C=C1\C(=O)OC2CCN3CCC(COC(=O)C(C)(O)C(C)C1O)C23 (stereo not drawn) |  | > 100 |  | > 100 |  | > 100 |  | > 100 |  | > 100 |  |  |  |  |  | 
21 | CC1OC(OC2CCC3(C=O)C4CCC5(C)C(C6=CC(=O)OC6)CCC5(O)C4CCC3(O)C2)C(O)C(O)C1O (stereo not drawn) |  | 7.77e-05 |  | 0.0025 |  | 0.0025 |  |  |  | 4.44e-05 |  |  |  |  |  | 
22 | CC/C=C\C/C=C\C[C@H](O)C/C=C1/C(=O)C=C[C@@H]1C/C=C\CCCC(=O)OC | 1.21 | 6.26 | 3 | 10.3 | 2.54 | 6.68 | 2.1 | 9.38 | 1.83 | 4.01 |  |  |  |  |  | 
23 | Cc1nc(-n2nc(-c3ccccc3)cc2-c2ccccc2)sc1C(/C=C/c1ccc([N+](=O)[O-])cc1)=N/NC(=O)c1ccncc1 |  |  |  |  |  |  |  |  |  |  | 58.5 | 92.6 | 61 | > 100 |  | 
24 | CC1=NN(C(=O)c2ccccc2O)C(=O)/C1=C/c1cccc([N+](=O)[O-])c1 |  | > 100 |  | > 100 |  | > 100 |  | > 100 |  |  | 21.4 |  | > 100 | 63.6 |  | 
25 | CCOP(=O)(Nc1ccc2oc(=O)c3ccccc3c2c1)OCC |  | > 100 |  | > 100 |  | > 100 |  | > 100 |  | > 100 |  |  |  |  |  | 
26 | CO[C@@]12[C@@H]3NC3CN1C1=C(C(=O)C(N)=C(C)C1=O)[C@@H]2COC(N)=O (stereo partly drawn) | 1.13 | 8.3 | 8.95 | > 54.8 | 2.02 | 37.1 | 1.67 | 54.5 | 1.3 | 6.74 |  |  |  |  |  | 
